From publication PMC8834506, “Optimization of Thymidine Kinase-Based Safety Switch for Neural Cell Therapy” (Cells, 2022)
Entries after “also recorded” stand apart in the source; their conditions may differ. Like-named read-outs stand apart in the source and are kept apart here.

Experiments:
[1] = tested on: hESC (HS420) expressing Ki67-SR39h; test: ATP-based cell survival assay, nucleoside-induced cell death; conditions: for EC50: SR39h under Ki67 promoter
[2] = format: in vivo, NOD/SCID mice; conditions: 40 mg/kg/day i.p.; weighed daily during treatment
Procedure: (§1) Given the encouraging in vitro results, we next investigated whether this newly developed safety switch system (SR39h and different nucleoside analogs) could prevent tumor formation in vivo. For this purpose, 20,000 undifferentiated Ki67-SR39h-expressing hESC were transplanted into the striatum of NOD/SCID mice. […] A group of control mice received only a NaCl solution. […] Human cytoplasmic marker (HCM) staining confirmed the human (i.e., hESC-derived) origin of these tumors. Tumors cells were predominantly Ki67 positive with a rosette organization as frequently found in tumors of the central nervous system.
Supplementary Figure S3: Mice weight
Mice were weighed daily during guanosine analogs treatment to identify differences in weight gain/loss between treated groups. No differences were observed between treatment groups.
Supplementary Figure S4: in vivo validation of suicide gene. Coronal section of NOD/SCID mice 47 days after injection of hESC expressing the SR39h thymidine kinase variant. Mice were treated for 2x5 days with the respective nucleoside analogs (see Methods). Upper lane: ACV; middle lane: PCV; lower lane: GCV. Sections were colored with cresyl violet and dark purple staining reflects a high density of nuclei. Scale bar 1000 µm. […]

[3] = tested on: non-transduced hESC colonies; test: Morphology and size of hESC colonies upon nucleoside treatment; format: cell-based, human
Description: We next investigated the impact of ACV, PCV, and GCV on non-transduced hESC and neuroprogenitors (proliferating ReNcells). […] To further understand the impact of nucleoside analogs on non-transduced cells, we performed γ-H2A.X immunostaining (Figure 6B). There was a graded response, virtually identical in hESC and in neuroprogenitors. […] In addition, we investigated the morphology and size of non-transduced hESC colonies upon nucleoside treatment. […] Taken together, our findings confirm considerable toxicity of GCV, even in the absence of viral TK. Note that this was not the case for PCV despite the fact that it is a potent inducer of cell death in thymidine kinase-expressing cells.
(§2) Cells were exposed to 100 µM of the respective nucleoside for 48 h. DNA damage was monitored using γ-H2A.X marker in yellow and nuclei were counterstained with Hoechst. The white box in the first column indicates the area of the zoom for the hESC colonies.

host cell DNA = conditions: cited from earlier work
[4] = tested on: Ki67-SR39h-expressing hESC transplanted into the striatum; test: In vivo prevention of tumor formation after striatal transplantation; design: species or system NOD/SCID mice; conditions: 40 mg/kg/day i.p., 47 days post-transplantation
Procedure: as §1
Figure 7 in vivo validation of suicide gene and inducers. (A) Schematic diagram of the experimental setup to detect tumor elimination in vivo. NOD/SCID mice were transplanted with 20,000 SR39h-expressing hESC through stereotactic injection into the striatum. 48 h post transplantation, mice were intraperitoneally injected with the respective nucleoside (40 mg/kg) for five consecutive days a week during a two-week period. Control mice were treated with a NaCl solution. Mice were sacrificed 47 days post transplantation. (B) Cresyl violet staining of a brain section. […] (C) Immunostaining of brain coronal section (sections from ACV-, PCV-, and GCV-treated mice are shown in the upper, middle, and lower row, respectively). Staining with the proliferation marker Ki67 and with the human cytoplasmic marker (HCM) are shown in red and green, respectively. Nuclei were counterstained with DAPI (blue). White arrows show residual proliferative cells form the graft. A merge of the three staining is shown in the right column. Each experimental group consisted of five mice.
Single cell transplant: Undifferentiated HS420 (expressing TK variants) were detached by TrypLE and concentrated at 20,000 cells/μL in Stemflex. 20,000 cells (1 μL) were injected into the right striatum using a 26-G Hamilton syringe (Hamilton, BGB Analytik AG, Boeckten, Switzerland). Injection coordinates for striatum were: bregma = 0.6 mm, mediolateral = 2 mm, dorsoventral = 3 mm.
Thirty days after termination of treatment with the respective antiviral nucleoside analogs or control (NaCl), mice were sacrificed by intracardiac perfusion of paraformaldehyde 4% in PBS. Brains were removed from the skull and post-fixed in the same fixative overnight.
Paraffin embedded brains were sectioned (coronal sections 7 µm thick) and processed for hematoxylin and eosin or cresyl violet staining stain aiming morphological assessment of the graft. Sections were mounted in Eukitt (Kindler GmbH, Germany) and observed under microscope (see below)
The primary antibody diluted in PBS with 0.3% Triton was incubated at 4 °C overnight in agitation. […]

[5] = tested on: sister chromatid exchange; design: method as in PMID 10719044; conditions: at concentrations far below those impairing the proliferative activity; cited from earlier work
non-transduced hESC = format: cell-based; conditions: 96 h nucleoside exposure; up to 100 µM
Procedure: as §2
Plates were washed twice with DMEM-F12 (Gibco, ThermoFisher; Geneva, Switzerland), then coated with Matrigel (Corning, Lonay, Switzerland) 1/100 in DMEM-F12 and incubate 2 h at 37°. Cells were detached using Accutase and seeded at 2000 cells/well in serum-free culture medium containing 10 µM of ROCK inhibitor. At 24 h, the cell culture was continued without ROCK inhibitor. […] Drugs were prepared by serial dilution (two-fold) in 100% DMSO. At 48 h after seeding, cells were exposed to antiviral drugs for 96 h. For EC50 assays, the medium was changed daily for 4 days, then cell viability was assessed using an ATP-based assay. EC50 values for each construct were calculated using a four parameters equation (GraphPad, Prism8, San Diego, CA, USA). The same procedure was used for the cell death kinetic determinations except the treatment duration. Luminescence was measured using Spectra L384/L96 (0.2 sec exposure, Molecular devices, Biberach an der Riß, Germany).

[6] = Homo sapiens, 96 h, read-out: EC50 (cell survival), 96 h nucleoside exposure

SMILES	Cell death induction in SR39h-expressing cells (in words) ([1]; 96 h nucleoside exposure)	EC50 [1, 6] [nM]	Differences in weight among groups [2]	Effect on morphology and size of colonies [3]	Fragmentation of host cell DNA (host cell DNA)	Tumor formation ([4]; five consecutive days a week for two weeks, from 2 days after transplantation, five mice per group)	Mice with a small nuclei-rich region at the graft site ([4]; cresyl violet staining)	Induction of sister chromatid exchange [5]	Toxicity in non-transduced hESC (non-transduced hESC)	EC50 ([1]; read-out: EC50 (cell survival), 96 h nucleoside exposure) [nM]
Nc1nc2c(ncn2COCCO)c(=O)[nH]1 [ACV, acyclovir]	induced only very little cytotoxicity	2900	no significant differences in weight	did not observe an effect	no fragmentation of host cell DNA	–	–	–	–	–
O=c1[nH]c(=O)n([C@H]2C[C@H](O)[C@@H](CO)O2)cc1/C=C/Br [BRVD, brivudine]	induced only very little cytotoxicity	~60000	–	–	–	–	–	–	–	–
CC(=O)OCC(CCn1cnc2cnc(N)nc21)COC(C)=O [FAM, famciclovir]	did not show any toxic effects; also recorded: did not show any activity	> 100000	–	–	–	–	–	–	–	–
Nc1nc2c(ncn2CCC(CO)CO)c(=O)[nH]1 [PCV, penciclovir]	strong suicide inducers	2.4	no significant differences in weight	did not observe an effect	induce fragmentation of host cell DNA	prevented tumor formation; also recorded: no major tumors; also recorded: impressive anti-tumor activities	small nucleus-rich region in one of the PCV-treated mice; also recorded: one out of five	not	did not observe toxicity	–
CC(C)[C@H](N)C(=O)OCC(CO)OCn1cnc2c(=O)nc(N)[nH]c21 (stereo partly drawn) [Val-GCV, valganciclovir]	relatively weak, but clearly discernible activity	31	–	–	–	–	–	–	–	32
